According to article PMC2760932 (Journal of medicinal chemistry, 2009):

What was measured:
[1] = biological target: human D3 dopamine receptor (Homo sapiens, UniProt P35462); experiment: Competition binding, [125I]IABN, HEK 293 cells transfected with human D3; conditions: for D4/D3: Table 2, ratio of Ki values
dopamine D3 receptor = dopamine D3 receptor (Homo sapiens, UniProt P35462); experiment: Quinpirole-stimulated mitogenesis assay, D3
D2 receptor = D2 receptor (Homo sapiens, UniProt P14416); experiment: D2 binding assay by the contractor
D2 receptor, sequence (P14416 whole entry): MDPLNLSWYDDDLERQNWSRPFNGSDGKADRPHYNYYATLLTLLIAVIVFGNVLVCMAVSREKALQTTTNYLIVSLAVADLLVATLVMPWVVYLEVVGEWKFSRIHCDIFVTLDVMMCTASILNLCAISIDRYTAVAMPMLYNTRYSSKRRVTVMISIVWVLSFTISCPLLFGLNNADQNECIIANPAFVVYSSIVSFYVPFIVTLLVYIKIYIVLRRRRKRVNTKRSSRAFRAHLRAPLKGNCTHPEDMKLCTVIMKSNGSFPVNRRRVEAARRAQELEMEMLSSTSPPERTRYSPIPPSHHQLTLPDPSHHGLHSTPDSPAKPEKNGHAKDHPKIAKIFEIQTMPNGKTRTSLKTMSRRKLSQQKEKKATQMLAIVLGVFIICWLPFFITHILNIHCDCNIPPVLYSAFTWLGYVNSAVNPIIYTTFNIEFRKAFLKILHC

human D3 dopamine receptor, sequence (P35462 whole entry): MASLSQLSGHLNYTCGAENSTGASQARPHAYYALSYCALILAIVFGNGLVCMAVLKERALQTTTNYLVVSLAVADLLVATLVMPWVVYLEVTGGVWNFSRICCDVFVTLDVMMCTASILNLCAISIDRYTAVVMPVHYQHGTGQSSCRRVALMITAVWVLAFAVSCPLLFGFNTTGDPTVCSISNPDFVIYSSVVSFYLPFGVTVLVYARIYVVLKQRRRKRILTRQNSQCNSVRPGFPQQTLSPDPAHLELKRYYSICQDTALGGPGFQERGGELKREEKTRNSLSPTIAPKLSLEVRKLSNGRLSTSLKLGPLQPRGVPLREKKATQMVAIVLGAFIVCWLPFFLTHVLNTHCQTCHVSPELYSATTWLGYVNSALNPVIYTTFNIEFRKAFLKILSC
dopamine D3 receptor, sequence (P35462 whole entry): as above

SMILES	Ki (D2 receptor) [nM]	D4/D3 [1]	further results
COc1ccccc1N1CCN(CCCCNC(=O)c2cc3cc(I)ccc3o2)CC1 [Compound 14, 5-Iodo-N-(4-(4-(2-methoxy-phenyl)piperazin-1-yl)butyl)benzofuran-2-carboxamide]			D3 selectivity over D2 (binding) ([1]; from Ki values): > 100 fold
COc1ccccc1N1CCN(CC(O)CCNC(=O)c2cc3cc(F)ccc3[nH]2)CC1 (centres unmarked) [Compound 26, 5-Fluoro-N-(3-hydroxy-4-(4-(2-methoxy-phenyl)piperazin-1-yl)butyl)-1H-indole-2-carboxamide]			D3 selectivity over D2 receptor mediated mitogenesis (dopamine D3 receptor): ~100 fold
O=C(NCCC(O)CN1CCN(c2cccc(Cl)c2Cl)CC1)c1cc2ccccc2o1 (centres unmarked) [Compound 31, N-(4-(4-(2,3-Dichloro-phenyl)piperazin-1-yl)-3-hydroxybutyl)benzofuran-2-carboxamide]		>1600	
O=C(NCCC(O)CN1CCN(c2cccc(Cl)c2Cl)CC1)c1cc2cc(I)ccc2o1 (centres unmarked) [Compound 33, N-(4-(4-(2,3-Dichloro-phenyl)piperazin-1-yl)-3-hydroxybutyl)-5-iodobenzofuran-2-carboxamide]		>1300	

Further lines, with some results ahead:

Ki (D2 receptor) [nM]	D4/D3 [1]	SMILES	further results
> 400		COc1ccc2[nH]c(C(=O)NCCC(O)CN3CCN(c4cccc(Cl)c4Cl)CC3)cc2c1 (centres unmarked) [Compound 29, N-(4-(4-(2,3-Dichloro-phenyl)piperazin-1-yl)-3-hydroxybutyl)-5-methoxy-1H-indole-2-carboxamide]	Ki [1]: 1 nM
> 400		COc1ccc2[nH]c(C(=O)NCCC(O)CN3CCN(c4ccccc4OC)CC3)cc2c1 (centres unmarked) [Compound 30, N-(3-Hydroxy-4-(4-(2-methoxy-phenyl)piperazin-1-yl)butyl)-5-methoxy-1H-indole-2-carboxamide]	EC50 (dopamine D3 receptor): 13.7 nM
